Experimental data taken from ChEMBL document CHEMBL1201862, “PubChem BioAssay data set” (2004).
Activity calls are given as the source filed them.

Key:
[1] = toxicity toward HepG2 liver cells – cell-based, plate reader, cherry-pick, antagonist series, cytotoxicity control, dose response (AID 743416); assay type: functional
[2] = viability loss in HEK293 cells – cell-based, plate reader, cherry-picked samples, cytotoxicity control, dose response (AID 743446); assay type: functional
[3] = blockade of melanocortin 4 receptor signaling – cell-based, plate reader, cherry pick, counter-screen for LGR2 antagonist project, dose response (AID 743444); assay type: functional;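 note: transfected HEK 293 cells stimulated with alpha-MSH peptide; potency of inhibitors of the alpha-MSH evoked signal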
[4] = blockers of bursicon-stimulated LGR2 cAMP reporter – cell-based, HEK293, CRE-luciferase reporter, cherry pick, set 2, dose response (AID 743343); assay type: functional;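 note: transfected cells were stimulated with diluted bursicon conditioned medium after compound addition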
[5] = A549 cell cytotoxicity, dose response, cytotoxicity control, plate reader, cherry-pick, antagonist series (AID 743412); assay type: functional, cell-based
[6] = Luminescence-based counterscreen assay for KLF5 inhibitors: dose response cell-based high throughput screening assay to identify cytotoxic compounds using the IEC-6 intestinal epithelial cell line. [Related pubchem assays: 1700 (Primary screen.), 1834 (Confirmation screen.), 1858 (Summary AID.), 1905 (Counterscreen.)]; assay type: functional
[7] = target: T1, Calpain-2 catalytic subunit (Sus scrofa, UniProt P43367); experiment: m-calpain protease blockers, concentration series – biochemical, fluorogenic peptide substrate, dose response (AID 1420); assay type: functional
T1 sequence (P43367 whole entry): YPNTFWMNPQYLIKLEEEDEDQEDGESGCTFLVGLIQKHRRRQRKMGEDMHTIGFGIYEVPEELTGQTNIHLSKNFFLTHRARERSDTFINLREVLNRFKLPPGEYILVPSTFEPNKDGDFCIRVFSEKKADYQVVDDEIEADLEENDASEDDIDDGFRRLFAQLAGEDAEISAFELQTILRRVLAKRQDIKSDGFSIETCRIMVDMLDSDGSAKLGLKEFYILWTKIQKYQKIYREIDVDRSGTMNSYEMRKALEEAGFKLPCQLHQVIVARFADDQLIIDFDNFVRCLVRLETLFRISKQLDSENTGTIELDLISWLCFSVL

Hexokinase HKDC1 = Hexokinase HKDC1 (Homo sapiens, UniProt Q2TB90); experiment: inhibition of HKDC1 glucose phosphorylation – biochemical, W721R variant, dose response (AID 504729); assay type: functional
[8] = target: T2, Alkaline phosphatase, tissue-nonspecific isozyme (Homo sapiens, UniProt P05186)
T2 sequence (P05186 whole entry): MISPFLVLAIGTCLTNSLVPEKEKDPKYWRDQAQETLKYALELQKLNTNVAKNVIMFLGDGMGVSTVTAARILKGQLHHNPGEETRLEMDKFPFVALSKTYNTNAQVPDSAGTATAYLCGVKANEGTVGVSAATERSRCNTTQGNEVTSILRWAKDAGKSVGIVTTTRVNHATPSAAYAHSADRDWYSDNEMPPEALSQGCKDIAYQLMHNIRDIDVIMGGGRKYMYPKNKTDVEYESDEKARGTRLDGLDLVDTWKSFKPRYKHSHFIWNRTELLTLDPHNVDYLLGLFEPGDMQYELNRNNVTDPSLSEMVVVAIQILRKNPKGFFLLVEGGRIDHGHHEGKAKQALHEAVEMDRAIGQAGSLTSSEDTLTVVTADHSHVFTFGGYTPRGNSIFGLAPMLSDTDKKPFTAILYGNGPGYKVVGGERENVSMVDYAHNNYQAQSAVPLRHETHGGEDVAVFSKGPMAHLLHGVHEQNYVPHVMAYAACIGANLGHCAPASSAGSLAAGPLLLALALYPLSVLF

[9] = target: T3, RNA-binding protein pos-1 (Caenorhabditis elegans, UniProt G5EF15); experiment: disruptors of C. elegans POS-1 RNA interaction – biochemical, fluorescence polarization, dose response (AID 1964);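 note: purified POS-1 fused to maltose binding protein made in E. coli; potency of compounds blocking POS-1 binding to fluorescent RNA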
T3 sequence (G5EF15 whole entry): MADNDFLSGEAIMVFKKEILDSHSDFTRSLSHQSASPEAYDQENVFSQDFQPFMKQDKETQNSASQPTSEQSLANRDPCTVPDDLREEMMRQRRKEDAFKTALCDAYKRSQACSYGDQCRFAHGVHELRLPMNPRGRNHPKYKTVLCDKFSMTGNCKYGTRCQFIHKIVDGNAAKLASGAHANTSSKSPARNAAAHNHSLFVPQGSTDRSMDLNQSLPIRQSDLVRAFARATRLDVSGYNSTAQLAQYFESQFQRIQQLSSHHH

HT-1080 = experiment: HT1080 cell viability loss – fluorescence readout (AID 620); assay type: functional, cell-based; conditions: Homo sapiens
[10] = viability loss of HPDE-C7K cells – cell-based, fluorescence, HTS, primary screen (AID 431); assay type: functional; conditions: Homo sapiens
[11] = HPDE-C7 pancreatic duct cell viability loss – fluorescence, HTS (AID 430); assay type: functional, cell-based; conditions: Homo sapiens
[12] = target: Luciferin 4-monooxygenase (Photinus pyralis, UniProt P08659); experiment: Counter Screen for Luciferase-based Assay Positives. [Related pubchem assays: 620, 618, 411 ]
[13] = target: T4, Zinc finger protein mex-5 (Caenorhabditis elegans, UniProt Q9XUB2); experiment: potency of MEX-5 RNA-binding blockers – biochemical, C. elegans, fluorescence polarization, dose response (AID 1960)
T4 sequence (Q9XUB2 whole entry): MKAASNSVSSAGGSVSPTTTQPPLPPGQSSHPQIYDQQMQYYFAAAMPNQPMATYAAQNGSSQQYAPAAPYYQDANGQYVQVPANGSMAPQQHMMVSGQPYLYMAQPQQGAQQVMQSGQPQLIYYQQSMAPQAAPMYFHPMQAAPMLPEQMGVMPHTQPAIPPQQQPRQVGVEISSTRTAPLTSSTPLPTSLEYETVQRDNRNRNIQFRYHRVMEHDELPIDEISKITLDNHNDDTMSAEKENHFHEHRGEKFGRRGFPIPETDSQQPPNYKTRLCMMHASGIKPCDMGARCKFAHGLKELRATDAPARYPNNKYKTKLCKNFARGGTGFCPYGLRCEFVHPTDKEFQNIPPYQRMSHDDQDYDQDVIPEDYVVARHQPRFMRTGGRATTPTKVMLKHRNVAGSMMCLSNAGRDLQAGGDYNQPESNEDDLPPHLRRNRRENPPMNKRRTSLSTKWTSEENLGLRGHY

Sequence of Luciferin 4-monooxygenase (P08659 whole entry): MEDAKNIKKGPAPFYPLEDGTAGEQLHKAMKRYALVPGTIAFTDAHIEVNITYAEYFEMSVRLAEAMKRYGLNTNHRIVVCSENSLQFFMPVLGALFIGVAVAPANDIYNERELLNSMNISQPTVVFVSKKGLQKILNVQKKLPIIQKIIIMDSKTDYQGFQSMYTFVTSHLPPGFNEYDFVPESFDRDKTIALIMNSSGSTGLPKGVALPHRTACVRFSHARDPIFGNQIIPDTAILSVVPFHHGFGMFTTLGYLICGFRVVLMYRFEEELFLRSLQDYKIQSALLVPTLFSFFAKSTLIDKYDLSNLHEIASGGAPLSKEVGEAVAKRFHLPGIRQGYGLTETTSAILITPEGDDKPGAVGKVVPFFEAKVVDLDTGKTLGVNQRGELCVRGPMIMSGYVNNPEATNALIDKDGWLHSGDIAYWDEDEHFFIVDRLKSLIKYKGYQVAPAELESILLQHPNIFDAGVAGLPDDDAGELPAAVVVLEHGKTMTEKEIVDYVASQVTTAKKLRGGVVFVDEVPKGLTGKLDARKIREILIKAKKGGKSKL
Sequence of Hexokinase HKDC1 (Q2TB90 whole entry): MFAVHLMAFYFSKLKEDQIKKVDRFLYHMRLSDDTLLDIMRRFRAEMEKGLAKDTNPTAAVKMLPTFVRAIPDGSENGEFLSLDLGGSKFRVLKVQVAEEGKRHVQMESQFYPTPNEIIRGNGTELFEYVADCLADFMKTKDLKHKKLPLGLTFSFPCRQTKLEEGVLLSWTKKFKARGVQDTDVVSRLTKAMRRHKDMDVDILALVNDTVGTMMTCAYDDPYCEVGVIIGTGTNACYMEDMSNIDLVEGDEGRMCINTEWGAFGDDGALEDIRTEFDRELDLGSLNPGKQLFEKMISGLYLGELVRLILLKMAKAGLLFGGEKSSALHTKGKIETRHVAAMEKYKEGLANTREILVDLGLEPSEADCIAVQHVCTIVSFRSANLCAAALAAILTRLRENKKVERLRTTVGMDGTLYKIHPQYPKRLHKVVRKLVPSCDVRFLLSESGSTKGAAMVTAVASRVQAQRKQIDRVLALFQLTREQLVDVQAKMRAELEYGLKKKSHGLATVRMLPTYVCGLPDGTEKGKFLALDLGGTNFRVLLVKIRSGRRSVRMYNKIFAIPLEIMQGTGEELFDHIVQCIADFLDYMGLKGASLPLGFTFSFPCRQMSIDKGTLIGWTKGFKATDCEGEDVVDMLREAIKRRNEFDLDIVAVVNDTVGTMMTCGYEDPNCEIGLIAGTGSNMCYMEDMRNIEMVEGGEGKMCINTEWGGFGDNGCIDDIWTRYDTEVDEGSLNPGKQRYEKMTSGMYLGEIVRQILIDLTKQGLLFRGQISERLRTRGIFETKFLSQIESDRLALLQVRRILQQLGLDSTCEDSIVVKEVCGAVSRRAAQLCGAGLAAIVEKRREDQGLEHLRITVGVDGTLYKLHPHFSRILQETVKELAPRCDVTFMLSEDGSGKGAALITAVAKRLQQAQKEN

CCc1ccc(C(=O)Nc2nc3ccccc3[nH]2)cc1
AC50 [1]: 29.3 µM (active)
AC50 [2]: 28.4 µM (active)
AC50 [3]: 1.45 µM (active)
AC50 [4]: 1.27 µM (active)
AC50 [5]: 31.8 µM (active)
IC50 [6]: 22.1 µM (not active)

Cc1cc(C)n2nc(SCc3nnc(SCc4ccccc4Cl)s3)nc2n1
IC50 [7]: 9.87 µM (not active)
IC50 (Hexokinase HKDC1): 18.8 µM (active)

Cn1nc(CC(=O)NC2CCCCCCCCCCC2)c2ccccc2c1=O
EC50 [8]: 65 µM (not active)

Cc1c(NC(=O)c2coc(=O)c(Br)c2)c(=O)n(-c2ccccc2)n1C
EC50 [9]: 8.99 µM (active)
EC50 (HT-1080): 15 µM (active)
EC50 [10]: 7.23 µM (active)
EC50 [11]: 7.2 µM (active)
EC50 [12]: 0.61 µM (active)
EC50 [13]: 16.8 µM (active)
